Experimental data reported in patent US9464093B2, “Substituted imidazo[4',5':4,5]cyclopenta[1,2-e]pyrrolo[1,2-a]pyrazines and oxazolo[4',5':4,5]cyclopenta[1,2-e]pyrrolo[1,2-a]pyrazines for treating brain cancer” (Mayo Foundation for Medical Education and Research, priority 2012, dated 2016).

Experiments:
U87 = assay: Cell proliferation assay U87 (Example 6); assay type: cell-based; conditions: cells counted on the sixth day
Description: In-vitro assays were performed to assess the cytotoxic impact of AA analogues on breast cancer cell lines (MB-468, MB-453, and T47D), lymphoma cell lines (Raji and OCI-LY10), and glioblastoma multiforme cell line (U87). The three breast cancer cell lines represent three subtypes of breast cancer: triple-negative (MB-468), Her2-positive (MB-453), and hormone receptor positive (T47D).
The IC50 values obtained for each compound represents the concentration of the tested compound that is needed to decrease the cancer cell count by 50%. Cancer cells were seeded in triplicate at 50,000 cells per well of a 24-well plate in 0.5 ml medium. […] Cells were harvested and counted on the sixth day using a Beckman Coulter counter.

[1] = CNS pharmacokinetic analysis in rats (microdialysis, CE-UV); conditions: male, Sprague-Dawley, rat, in vivo, iv, 2.5 mg/kg
Description: Male Sprague-Dawley rats (Harlan, Indianapolis, Ind., USA) were used in this CNS pharmacokinetic study on Agelastatin A and its three analogues (CAA, CEAA, and DCEAA). Six rats were used for each drug. The rats were approximately 2 months old and weighed 300±25 g at the beginning of the study. All rats were housed in a temperature-controlled room (23±2° C.) with a 12:12 light dark cycle (lights off at 6:00 pm). Purina 5001 Rodent Chow and tap water were available ad libitum at all times.
Rats were anesthetized with gasiform isoflurane (1% isoflurane in a mixture of 20% oxygen and 80% nitrogen gas) and immobilized in a stereotaxic frame (KOPF Instruments, Tujunga, Calif.). Anesthesia was maintained during the entire procedure. The guide cannula (CMA Microdialysis Inc., Acton, Mass.) was stereotactically implanted into the lateral ventricle (AP −0.9, L 1.6, V 3.4, relative to bregma and skull), and then secured to the skull by screws and dental cement. Following surgery, each rat was housed individually with food and water ad libitum for 3 days for recovery from cannulation surgery. Microdialysis experiments were carried out on conscious, freely moving rats. On the day of the experiment, the stylet in the guide cannula was replaced with the microdialysis probe (CMA/11 with 4 mm membrane, CMA Microdialysis Inc., Acton, Mass.) and a vascular microdialysis probe (CMA/20 with 4 mm membrane, CMA Microdialysis Inc, Acton, Mass.)) was implanted into a jugular vein. The probes had inlet tubes connected to syringes to deliver artificial cerebrospinal fluid (146 mM NaCl, 1.2 mM CaCl2, 3 mM KCl, 1 mM MgCl2, 1.9 mM Na2HPO4, 0.1 mM NaH2PO4, pH 7.4) into the ventricle and Dulbecco's phosphate-buffered saline (D-PBS) into the blood at 0.5 μl/min flow rate. […]
The drug concentration in the microdialysate was measured by CE-UV (Agilent 3D CE). […] The absorbance from the drug was detected with UV at 280 nm. […]
Two-way repeated measures ANOVA followed by Tukey's test was used. […] CNS penetration is determined as the ratio of CSF and blood area under the curve (AUC).

Compound	IC50 (U87; Homo sapiens, U-87 MG) [nM]	Kp [1]	IC50 (U87) [nM]
CCN1C(=O)N[C@H]2[C@@H]3NC(=O)c4cc(Cl)c(Cl)n4[C@@H]3C[C@]21O [DCEAA, dichloroethylagelastatin A]	256	0.307	
CN1C(=O)N[C@H]2[C@@H]3NC(=O)c4ccc(Cl)n4[C@@H]3C[C@]21O [CAA, chloroagelastatin A]	96.6	0.16	
CN1C(=O)N[C@H]2[C@@H]3NC(=O)c4ccc(Br)n4[C@@H]3C[C@]21O [AA, agelastatin A, reference compound]			2800
CCN1C(=O)N[C@H]2[C@@H]3NC(=O)c4ccc(Cl)n4[C@@H]3C[C@]21O [CEAA, chloroethylagelastatin A]	109	0.27	
